In PubChem BioAssay AID2060897 (Molecular Pharmacology Branch, DTP, NCI, 2025):

Test system: 966289-007-R4-J1-PDC complex spheroid viability
Test: Anticancer human tumor 966289-007-R4-J1-PDC patient-derived pancreatic adenocarcinoma cell line growth inhibition [RAS]
Details: for IC50: curve of first compound; for viability, T/C: stronger effect = lower value
Procedure, shortened: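 Multi-cell-type spheroids: tumor cells plus HUVEC endothelial cells and mesenchymal stem cells. RAS-pathway inhibitors were combined with targeted agents, each dosed in half-log steps down from clinical Cmax, or from 10 microM when Cmax was unknown.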

[1] = second compound 0.00316 µM, first compound 0.00316 µM
[2] = second compound 0.00316 µM, first compound 0.01 µM
[3] = second compound 0.00316 µM, first compound 0.0316 µM
[4] = second compound 0.00316 µM, first compound 0.1 µM
[5] = second compound 0.00316 µM, first compound 0.316 µM
[6] = second compound 0.00316 µM, first compound 1 µM
[7] = second compound 0.01 µM, first compound 0.00316 µM
[8] = second compound 0.01 µM, first compound 0.01 µM
[9] = second compound 0.01 µM, first compound 0.0316 µM
[10] = second compound 0.01 µM, first compound 0.1 µM
[11] = second compound 0.01 µM, first compound 0.316 µM
[12] = second compound 0.01 µM, first compound 1 µM
[13] = second compound 0.0316 µM, first compound 0.00316 µM
[14] = second compound 0.0316 µM, first compound 0.01 µM
[15] = second compound 0.0316 µM, first compound 0.0316 µM
[16] = second compound 0.0316 µM, first compound 0.1 µM
[17] = second compound 0.0316 µM, first compound 0.316 µM
[18] = second compound 0.0316 µM, first compound 1 µM
[19] = second compound 0.1 µM, first compound 0.00316 µM
[20] = second compound 0.1 µM, first compound 0.01 µM
[21] = second compound 0.1 µM, first compound 0.0316 µM
[22] = second compound 0.1 µM, first compound 0.1 µM
[23] = second compound 0.1 µM, first compound 0.316 µM
[24] = second compound 0.1 µM, first compound 1 µM
[25] = second compound 0.316 µM, first compound 0.00316 µM
[26] = second compound 0.316 µM, first compound 0.01 µM
[27] = second compound 0.316 µM, first compound 0.0316 µM
[28] = second compound 0.316 µM, first compound 0.1 µM
[29] = second compound 0.316 µM, first compound 0.316 µM
[30] = second compound 0.316 µM, first compound 1 µM
[31] = second compound 1 µM, first compound 0.00316 µM
[32] = second compound 1 µM, first compound 0.01 µM
[33] = second compound 1 µM, first compound 0.0316 µM
[34] = second compound 1 µM, first compound 0.1 µM
[35] = second compound 1 µM, first compound 0.316 µM
[36] = second compound 1 µM, first compound 1 µM
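Note: spheroids exposed to agents for one week before readout.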
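Throughout, for viability, T/C: percent viability relative to DMSO vehicle control wells as 100%.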

`C=CC(=O)Nc1cc(Nc2nccc(-c3cn(C)c4ccccc34)n2)c(OC)cc1N(C)CCN(C)C` + C=CC(=O)N1CCN(c2nc(OCC3CCCN3C)nc3c(F)c(-c4nc(N)cc(C)c4C(F)(F)F)c(Cl)cc23)C(C)C1 showed an IC50 (second compound 0.00316 µM) greater than 1000 nM, an IC50 (second compound 0.01 µM) greater than 1000 nM and an IC50 (second compound 0.0316 µM) greater than 1000 nM. For the same compound, the IC50 (second compound 0.1 µM) was greater than 1000 nM, the IC50 (second compound 0.316 µM) was greater than 1000 nM and the IC50 (second compound 1 µM) was greater than 1000 nM. It also gave a viability, T/C [1] of 102%, a viability, T/C [2] of 105% and a viability, T/C [3] of 101%. The viability, T/C [4] was 104%, the viability, T/C [5] was 104% and the viability, T/C [6] was 71.7%. For the same compound, the viability, T/C [7] was 95.6%, the viability, T/C [8] was 100% and the viability, T/C [9] was 85.5%. It also gave a viability, T/C [10] of 97.7%, a viability, T/C [11] of 97.9% and a viability, T/C [12] of 71.8%. It also gave a viability, T/C [13] of 105%, a viability, T/C [14] of 102% and a viability, T/C [15] of 97.9%. The viability, T/C [16] was 98.7%, the viability, T/C [17] was 97.3% and the viability, T/C [18] was 78.8%. It also gave a viability, T/C [19] of 117%, a viability, T/C [20] of 103% and a viability, T/C [21] of 101%. It also gave a viability, T/C [22] of 97.4%, a viability, T/C [23] of 85.4% and a viability, T/C [24] of 83.9%. The viability, T/C [25] was 104%, the viability, T/C [26] was 112% and the viability, T/C [27] was 118%. For the same compound, the viability, T/C [28] was 98.5%, the viability, T/C [29] was 84.6% and the viability, T/C [30] was 78.9%. It also gave a viability, T/C [31] of 102%, a viability, T/C [32] of 95.5% and a viability, T/C [33] of 95.3%. It also gave a viability, T/C [34] of 100%, a viability, T/C [35] of 96% and a viability, T/C [36] of 67.6%.
`O=C(c1ccc(F)c(F)c1Nc1ccc(I)cc1F)N1CC(O)([C@@H]2CCCCN2)C1` + C=CC(=O)N1CCN(c2nc(OCC3CCCN3C)nc3c(F)c(-c4nc(N)cc(C)c4C(F)(F)F)c(Cl)cc23)C(C)C1 gave an IC50 (second compound 0.00316 µM) of 509 nM, an IC50 (second compound 0.01 µM) of 618 nM and an IC50 (second compound 0.0316 µM) of 648 nM. For the same compound, the IC50 (second compound 0.1 µM) was 570 nM, the IC50 (second compound 0.316 µM) was 740 nM and the IC50 (second compound 1 µM) was 694 nM. For the same compound, the viability, T/C [1] was 98.1%, the viability, T/C [2] was 87.5% and the viability, T/C [3] was 77.2%. It also gave a viability, T/C [4] of 72.3%, a viability, T/C [5] of 63.5% and a viability, T/C [6] of 36.4%. For the same compound, the viability, T/C [7] was 78.5%, the viability, T/C [8] was 80.9% and the viability, T/C [9] was 71.2%. The viability, T/C [10] was 75.8%, the viability, T/C [11] was 62.9% and the viability, T/C [12] was 40.3%. For the same compound, the viability, T/C [13] was 94.6%, the viability, T/C [14] was 75.3% and the viability, T/C [15] was 76.3%. It also gave a viability, T/C [16] of 70.3%, a viability, T/C [17] of 66.5% and a viability, T/C [18] of 40.8%. The viability, T/C [19] was 95.9%, the viability, T/C [20] was 70.3% and the viability, T/C [21] was 85.1%. It also gave a viability, T/C [22] of 72.2%, a viability, T/C [23] of 63.5% and a viability, T/C [24] of 38.2%. It also gave a viability, T/C [25] of 84%, a viability, T/C [26] of 82.6% and a viability, T/C [27] of 78.6%. It also gave a viability, T/C [28] of 76.2%, a viability, T/C [29] of 68% and a viability, T/C [30] of 43.6%. The viability, T/C [31] was 70.2%, the viability, T/C [32] was 71.1% and the viability, T/C [33] was 71.3%. For the same compound, the viability, T/C [34] was 77.2%, the viability, T/C [35] was 63.5% and the viability, T/C [36] was 42.7%.
